The results in this text go back to patent US20080293727A1, “Novel sulfonamide inhibitors of aspartyl protease” (priority 1992, published 2008).

Each structure is given as a SMILES string.

This assay deals with HIV-1 protease (Human immunodeficiency virus type 1 group M subtype B, UniProt P04585). As to the kind of experiment: Inhibition constants against HIV-1 protease (method of Pennington et al.). Type of assay: biochemical. The note with it: HIV-1 protease; read-out: Ki value. From the text: We measured the inhibition constants of the compounds listed in Table VII against HIV-1 protease using the above-cited method of Pennington et al.
Regarding `CC(=O)Nc1ccc(S(=O)(=O)N(CC(C)C)C[C@@H](O)[C@H](Cc2ccccc2)NC(=O)OCc2cccnc2)cc1` [Compound 44, N-(4-(((2 syn,3S)-2-Hydroxy-4-phenyl-3-(pyridin-3-yl-methoxycarbonylamino)-butyl)-isobutyl-sulfamoyl)-phenyl)-acetamide], the Ki is 5 nM.

Turning to `CC(C)CN(C[C@@H](O)[C@H](Cc1ccccc1)NC(=O)OC(C)(C)C)S(=O)(=O)c1ccccc1` [Compound 45], the Ki amounted to 6 nM.

Turning to `Cc1nc(C)c(S(=O)(=O)N(CC(C)C)C[C@@H](O)[C@H](Cc2ccccc2)NC(=O)OC(C)(C)C)s1` [Compound 46], the Ki worked out at 154 nM.

For `CC(=O)Nc1ccc(S(=O)(=O)N(CC(C)C)C[C@@H](O)[C@H](Cc2ccccc2)NC(=O)O[C@H]2CCOC2)cc1` [Compound 48, N-(4-(((2 syn,3S)-2-Hydroxy-4-phenyl-3-((S)-tetrahydrofuran-3-yloxycarbonylamino)-butyl)-isobutyl-sulfamoyl)-phenyl)-acetamide], the inhibition constant Ki stood at 1.4 nM.

For `CC(C)CN(C[C@@H](O)[C@H](Cc1ccccc1)NC(=O)OC(C)(C)C)S(=O)(=O)c1ccc(F)cc1F` [Compound 49], the inhibitory constant (Ki) came out at 9 nM.

For the molecule `CC(=O)Nc1ccc(S(=O)(=O)N(CC(C)C)C[C@@H](O)[C@H](Cc2ccccc2)NC(=O)O[C@H]2CCOC2)cc1Cl` [Compound 53], the Ki was 27 nM.

Take `CC(=O)Nc1cc(S(=O)(=O)N(CC(C)C)C[C@@H](O)[C@H](Cc2ccccc2)NC(=O)OC(C)(C)C)ccc1F` [Compound 54]: the inhibition constant Ki worked out at 22 nM.

For the molecule `CC(=O)Nc1cc(S(=O)(=O)N(CC(C)C)C[C@@H](O)[C@H](Cc2ccccc2)NC(=O)c2cc(C(C)(C)C)nn2Cc2ccccc2)ccc1F` [Compound 55], the Ki stood at 430 nM.

Turning to `CC(C)CN(C[C@@H](O)[C@H](Cc1ccccc1)NC(=O)O[C@@H](C)c1ccccc1)S(=O)(=O)c1cccc2nonc12` [Compound 56], the inhibitory constant (Ki) turned out to be 60 nM.

On to `CC(C)CN(C[C@@H](O)[C@H](Cc1ccccc1)NC(=O)COc1ccccc1)S(=O)(=O)c1cccc2nonc12` [Compound 57], for which the inhibition constant Ki was 200 nM.

Consider `CC(C)CN(C[C@@H](O)[C@H](Cc1ccccc1)NC(=O)OC(C)(C)C)S(=O)(=O)c1cccc2nonc12` [Compound 58], for which the Ki stood at 34 nM.

As to `CC(C)CN(C[C@@H](O)[C@H](Cc1ccccc1)NC(=O)O[C@H](C)c1ccccc1)S(=O)(=O)c1cccc2nonc12` [Compound 59], the inhibitory constant (Ki) came out at 206 nM.

`CC(C)CN(C[C@@H](O)[C@H](Cc1ccccc1)NC(=O)O[C@H]1CCOC1)S(=O)(=O)c1cccc2nonc12` [Compound 60]: the inhibition constant (Ki) turned out to be 4 nM.

On to `CC(=O)Nc1ccc(S(=O)(=O)N(CC(C)C)C[C@@H](O)[C@H](Cc2ccccc2)NC(=O)OCc2ccccc2)cc1` [Compound 61], for which the inhibition constant Ki worked out at 4 nM.

Regarding `CC(C)CN(C[C@@H](O)[C@H](Cc1ccccc1)NC(=O)OCc1ccccc1)S(=O)(=O)c1ccc(N)c([N+](=O)[O-])c1` [Compound 63], the inhibitory constant (Ki) turned out to be 7 nM.

For `CC(C)CN(C[C@@H](O)[C@H](Cc1ccccc1)NC(=O)OC(C)(C)C)S(=O)(=O)c1ccc2nonc2c1` [Compound 64], the Ki turned out to be 3 nM.

Consider `CC(C)CN(C[C@@H](O)[C@H](Cc1ccccc1)NC(=O)OCc1ccccc1)S(=O)(=O)c1ccc2nonc2c1` [Compound 65], for which the Ki came to 0.7 nM.

In the case of `CC(C)CN(C[C@@H](O)[C@H](Cc1ccccc1)NC(=O)O[C@H]1CCOC1)S(=O)(=O)c1ccc2nonc2c1` [Compound 66], the Ki was determined as 0.4 nM.

In the case of `CC(=O)Nc1ccc(S(=O)(=O)N(CC(C)C)C[C@@H](O)[C@H](Cc2ccccc2)NC(=O)C(NC(N)=O)NC(N)=O)cc1` [Compound 67], the inhibition constant Ki turned out to be 7400 nM.

On to `CC(C)CN(C[C@@H](O)[C@H](Cc1ccccc1)NC(=O)O[C@H]1CCOC1)S(=O)(=O)N(C)C` [Compound 69], for which the inhibition constant Ki is 42 nM.

As for `CC(=O)Nc1cc(S(=O)(=O)N[C@@H](Cc2ccccc2)[C@H](O)CN(CC(C)C)S(=O)(=O)c2ccc(F)c(NC(C)=O)c2)ccc1F` [Compound 70], the inhibitory constant (Ki) turned out to be 25 nM.

As for `CC(C)CN(C[C@@H](O)[C@H](Cc1ccccc1)NS(=O)(=O)N(C)C)S(=O)(=O)c1cccc2nonc12` [Compound 71], the inhibition constant (Ki) was 470 nM.

On to `CC(C)CN(C[C@@H](O)[C@H](Cc1ccccc1)NS(=O)(=O)N(C)C)S(=O)(=O)N(C)C` [Compound 72], for which the Ki came out at 4000 nM.

`COc1ccc(OC)c(S(=O)(=O)N[C@@H](Cc2ccccc2)[C@H](O)CN(CC(C)C)S(=O)(=O)c2ccc(F)c(NC(C)=O)c2)c1` [Compound 73]: the inhibition constant (Ki) was 140 nM.

For the molecule `CC(C)(C)OC(=O)N[C@@H](Cc1ccccc1)[C@H](O)CN(CC1CC1)S(=O)(=O)c1ccc(F)cc1` [Compound 74], the Ki was 11 nM.

For the molecule `C=CCOC(=O)N[C@@H](Cc1ccccc1)[C@H](O)CN(CC(C)C)S(=O)(=O)c1ccc(Cl)c(Cl)c1` [Compound 81], the Ki turned out to be 2.3 nM.

For `CC(C)CN(C[C@@H](O)[C@H](Cc1ccccc1)NC(=O)OCc1cccnc1)S(=O)(=O)c1ccc2nonc2c1` [Compound 82], the inhibition constant (Ki) was 1.5 nM.

Take `CC(C)(C)OC(=O)N[C@@H](Cc1ccccc1)[C@H](O)CN(CC1CCCC1)S(=O)(=O)c1ccc(Cl)c(Cl)c1` [Compound 84]: the inhibitory constant (Ki) was 1.4 nM.

For `CC(=O)Nc1cc(S(=O)(=O)N(CC(C)C)C[C@@H](O)[C@H](Cc2ccccc2)NC(=O)O[C@H]2CCOC2)ccc1F` [Compound 88, N-(2-Fluoro-5-(((2 syn,3S)-2-hydroxy-4-phenyl-3-((S)-tetrahydrofuran-3-yloxycarbonylamino)-butyl)-isobutyl-sulfamoyl)-phenyl)-acetamide], the Ki is 1.4 nM.

Take `CCCOC(=O)N[C@@H](Cc1ccccc1)[C@H](O)CN(CC(C)C)S(=O)(=O)c1ccc(Cl)c(Cl)c1` [Compound 89]: the Ki amounted to 2 nM.

`CCCOC(=O)N[C@@H](Cc1ccccc1)[C@H](O)CN(CC(C)C)S(=O)(=O)c1ccc(NC(C)=O)c(Cl)c1` [Compound 90]: the inhibition constant Ki was found to be 93 nM.

As to `CC(=O)Nc1cccc(S(=O)(=O)N(CC(C)C)C[C@@H](O)[C@H](Cc2ccccc2)NC(=O)O[C@H]2CCOC2)c1` [Compound 91, N-(3-(((2 syn,3S)-2-Hydroxy-4-phenyl-3-((S)-tetrahydrofuran-3-yloxycarbonylamino)-butyl)-isobutyl-sulfamoyl)-phenyl)-acetamide], the Ki was determined as 2.5 nM.

On to `CC(C)CN(C[C@@H](O)[C@H](Cc1ccccc1)NC(=O)O[C@@H]1CCOC1)S(=O)(=O)c1ccc(F)cc1` [Compound 93, 4-Fluoro-N-((2 syn,3S)-2-hydroxy-4-phenyl-3-((R)-tetrahydrofuran-3-yloxycarbonylamino)-butyl)-N-isobutyl-benzenesulfonamide], for which the Ki came out at 0.8 nM.

For `CC(=O)Nc1ccc(S(=O)(=O)N(CC(C)C)C[C@@H](O)[C@H](Cc2ccccc2)NC(=O)O[C@@H]2CCOC2)cc1` [Compound 94, N-(4-(((syn)-2-Hydroxy-(S)-4-phenyl-3-((tetrahydro-furan-(R)-3-yl)-oxycarbonylamino)-butyl)-isobutyl-sulfamoyl)-phenyl)-acetamide], the inhibition constant (Ki) came out at 1.7 nM.

As for `CC(C)CN(C[C@@H](O)[C@H](Cc1ccccc1)NC(=O)O[C@H]1CCOC1)S(=O)(=O)c1cc(Cl)c(Cl)s1` [Compound 95], the inhibitory constant (Ki) stood at 1.3 nM.

With `CC(=O)Nc1ccc(COC(=O)N[C@@H](Cc2ccccc2)[C@H](O)CN(CC(C)C)S(=O)(=O)c2ccc(NC(C)=O)cc2)cc1` [Compound 96], the Ki worked out at 8 nM.

Take `CC(C)CN(C[C@@H](O)[C@H](Cc1ccccc1)NC(=O)OCc1cccnc1)S(=O)(=O)c1ccc(F)cc1` [Compound 98, 4-Fluoro-N-((2 syn,3S)-2-hydroxy-4-phenyl-3-(pyridin-3-yl-methoxycarbonylamino)-butyl)-N-isobutyl-benzenesulfonamide]: the inhibition constant (Ki) turned out to be 0.5 nM.

Take `CC(C)CN(C[C@@H](O)[C@H](Cc1ccccc1)NC(=O)O[C@H]1CCOC1)S(=O)(=O)c1ccc(Cl)cc1` [Compound 99, 4-Chloro-N-((2 syn,3S)-2-hydroxy-4-phenyl-3-((S)-tetrahydrofuran-3-yloxycarbonylamino)-butyl)-isobutyl-benzenesulfonamide]: the Ki was determined as 0.24 nM.

On to `COc1ccc(S(=O)(=O)N(CC(C)C)C[C@@H](O)[C@H](Cc2ccccc2)NC(=O)O[C@H]2CCOC2)cc1` [Compound 100, N-((2 syn,3S)-2-Hydroxy-4-phenyl-3-((S)-tetrahydrofuran-3-yloxycarbonylamino)-butyl)-N-isobutyl-4-methoxy-benzenesulfonamide], for which the inhibitory constant (Ki) amounted to 0.16 nM.

Regarding `CC(=O)Nc1ccc(S(=O)(=O)N(C)C[C@@H](O)[C@H](Cc2ccccc2)NC(=O)O[C@H]2CCOC2)cc1` [Compound 101], the inhibitory constant (Ki) worked out at 250 nM.

Take `COC(=O)N[C@@H](Cc1ccccc1)[C@H](O)CN(CC(C)C)S(=O)(=O)c1ccc(NC(C)=O)cc1` [Compound 102]: the inhibition constant (Ki) worked out at 33 nM.

Turning to `COC(=O)N[C@@H](Cc1ccccc1)[C@H](O)CN(CC(C)C)S(=O)(=O)c1ccc(Cl)c(Cl)c1` [Compound 103], the inhibition constant (Ki) is 4.5 nM.

As to `COC(=O)N[C@@H](Cc1ccccc1)[C@H](O)CN(CC(C)C)S(=O)(=O)c1ccc(F)cc1` [Compound 104], the Ki was 5.5 nM.

Take `C=C(C)COC(=O)N[C@@H](Cc1ccccc1)[C@H](O)CN(CC(C)C)S(=O)(=O)c1ccc(NC(C)=O)cc1` [Compound 105]: the Ki worked out at 7.5 nM.

Turning to `C=C(C)COC(=O)N[C@@H](Cc1ccccc1)[C@H](O)CN(CC(C)C)S(=O)(=O)c1ccc(Cl)c(Cl)c1` [Compound 106], the Ki came out at 1.4 nM.

With `C=C(C)COC(=O)N[C@@H](Cc1ccccc1)[C@H](O)CN(CC(C)C)S(=O)(=O)c1ccc(F)cc1` [Compound 107], the inhibitory constant (Ki) stood at 1.4 nM.

With `CC(C)CN(C[C@@H](O)[C@H](Cc1ccccc1)NC(=O)OC[C@@H]1COC(=O)N1)S(=O)(=O)c1ccc(F)cc1` [Compound 109, 4-Fluoro-N-(2-(syn)-hydroxy-3-((2-oxazolidon-(S)-4-yl)-methoxycarbonylamino)-4-(S)-phenyl-butyl)-N-isobutyl-benzenesulfonamide], the Ki is 6 nM.

In the case of `CC(=O)Nc1ccc(S(=O)(=O)N(CC(C)C)CC(O)C(Cc2ccccc2)NC(=O)OCC2COC(=O)N2)cc1` (stereo not drawn) [Compound 110], the Ki amounted to 28 nM.
